Test results: patent US20260216294A1, “BETA 2-ADRENERGIC RECEPTOR AGONISTS FOR TREATMENT OR PREVENTION OF MUSCLE WASTING” (ATROGI AB, priority 2023, published 2026)

Experiments:
L6-myotubes [1] = assay: Glucose uptake in differentiated L6-myotubes (Biological Example 2); type: cell-based; conditions: read-out: Biological example 2 (GU)
Method: (§1) Compounds described in publications referenced and incorporated herein were screened in accordance with the procedures outlined in Biological example 2 and Biological example 3.
Differentiated L6-myotubes were serum-starved overnight in medium containing 0.5% fatty-acid free BSA and stimulated with isoprenaline or the test compound, with a final concentration of 1×10^−5 M. After 1 h 40 min the cells were washed with warm glucose free medium or PBS twice and another portion of agonist was added to the glucose free medium. After 20 min the cells were exposed to 50 nM ^3H-2-deoxyglucose for 10 min before washed with ice cold glucose free medium or PBS three times and lysed with 0.2 M NaOH, 400 μL/well, for 1 h at 60° C. The cell lysate was mixed with 4 mL scintillation buffer (Emulsifier Safe, Perkin Elmer) and the radioactivity was detected in a […] (Tri-Carb 4810TR, Perkin Elmer).

L6-myotubes [2] = assay: Measurement of intracellular cAMP levels in differentiated L6-myotubes (Biological Example 3); type: cell-based; conditions: 0.25 h
Method: as §1
Differentiated L6-myotubes were serum-starved overnight and stimulated with isoprenaline or the test compound with a final concentration of 1×10^−5 M, for 15 min in stimulation buffer (HBSS supplemented with 1% BSA, 5 mM HEPES and 1 mM IBMX, pH 7.4). The medium was aspirated and 100 μL of 95% EtOH was added to each well of the 24-well plate and cells were kept at −20° C. overnight. The EtOH was allowed to evaporate and 500 μL of lysis buffer (1% BSA, 5 mM HEPES and 0.3% Tween-20, pH 7.4) was added to each well. The plate was kept at −80° C. for 30 min and then at −20° C. until the day of detection when the samples were thawed. Intracellular cAMP levels were detected using an alpha screen cAMP kit (6760635D from Perkin Elmer).

[3] = glucose uptake in differentiated L6-myotubes, compound at 10 μM, activity relative to isoproterenol at 10 μM
[4] = intracellular cAMP in differentiated L6-myotubes, compound at 10 μM, activity relative to isoproterenol at 10 μM
[5] = glucose uptake, compound at 10 μM relative to isoproterenol at 10 μM
[6] = intracellular cAMP, compound at 10 μM relative to isoproterenol at 10 μM

SMILES | Emax at 10 µM (L6-myotubes [1]; [3]) [%] | Emax at 10 µM (L6-myotubes [2]; [4]) [%] | Emax at 10 µM (L6-myotubes [1]; [5]) [%] | Emax at 10 µM (L6-myotubes [2]; [6]) [%]
CC(C)(C[C@H]1CC[C@@H](NS(C)(=O)=O)CC1)NC[C@H](O)c1cccc(C#N)n1 [Compound 422, 6-[(S)-2-{1,1-dimethyl-2-[(1s,4R)-4-(mesylamino)cyclohexyl]ethylamino}-1-hydroxyethyl]-2-pyridinecarbonitrile] | 50 to 75 | < 25 | – | –
CC1(C)CCC[C@H]([C@H](O)c2ccccc2Cl)N1 [Compound 162, (R)-[(R)-6,6-dimethyl-2-piperidyl](o-chlorophenyl)methanol] | – | – | 25 to 50 | < 25
CCCCNCC(O)c1ccc(O)c(Cl)c1 (centres unmarked) [Compound 20, 2-(butylamino)-1-(3-chloro-4-hydroxyphenyl)-1-ethanol] | – | – | 25 to 50 | < 25
CC(C)(C[C@H]1CC[C@@H](NS(C)(=O)=O)CC1)NC[C@H](O)c1cccc(F)c1 [Compound 453, (R)-2-{1,1-dimethyl-2-[(1s,4S)-4-(mesylamino)cyclohexyl]ethylamino}-1-(m-fluorophenyl)-1-ethanol] | > 75 | < 25 | – | –
OC(CNCC1CCCCC1)c1ccccc1 (centres unmarked) [Compound 7, 2-[(cyclohexylmethyl)amino]-1-phenyl-1-ethanol] | – | – | 25 to 50 | < 25
CO[C@H]1CC[C@H](C[C@@H]2CC[C@H]([C@H](O)c3ccccc3F)N2)CC1 [Compound 337, (R)-[(2R,5S)-5-{[(1r,4S)-4-methoxycyclohexyl]methyl}-2-pyrrolidinyl] (o-fluorophenyl)methanol] | > 75 | < 25 | – | –
O[C@H](c1cccc(F)c1)C12CCC(COCc3ccc(OC(F)(F)F)cc3)(CC1)N2 [Compound 488] | < 25 | < 25 | – | –
CCC[C@@H](C)NC[C@H](O)c1cccc(O)c1 [Compound 28, (R)-2-[(R)-1-methylbutylamino]-1-(m-hydroxyphenyl)-1-ethanol] | – | – | > 75 | 50 to 75
CC12CC(C1)[C@@H]([C@H](O)c1cccc(F)c1)N2 [Compound 188, (R)-{(S)-1-methyl-2-azabicyclo[[2.1.1]]hex-3-yl}(m-fluorophenyl)methanol] | – | – | < 25 | < 25
COC(=O)[C@H]1CC[C@@H](CC(C)(C)NC[C@H](O)c2cccc(F)c2)CC1 [Compound 327, methyl (1S,4s)-4-{2-[(R)-2-(m-fluorophenyl)-2-hydroxyethylamino]-2-methylpropyl} cyclohexanecarboxylate] | > 75 | < 25 | – | –
CC12CC(C1)[C@@H]([C@@H](O)c1cccc(N)c1F)N2 [Compound 242, (S)-{(S)-1-methyl-2-azabicyclo[[2.1.1]]hex-3-yl}(3-amino-2-fluorophenyl)methanol] | 50 to 75 | < 25 | – | –
O[C@@H](c1cccc(F)c1)C12CCC(CCc3ccc(Cl)cc3)(CC1)N2 [Compound 527, (S)-{4-[2-(p-chlorophenyl)ethyl]-7-azabicyclo[[2.2.1]]hept-1-yl}(m-fluorophenyl)methanol] | < 25 | < 25 | – | –
CC12CCC([C@@H](O)c3ccccc3Cl)(CC1)N2 [Compound 194, (S)-(o-chlorophenyl)(4-methyl-7-azabicyclo[[2.2.1]]hept-1-yl)methanol] | – | – | > 75 | < 25
CC12CCC([C@@H](O)c3ccccc3F)(CC1)N2 [Compound 180, (S)-(o-fluorophenyl)(4-methyl-7-azabicyclo[[2.2.1]]hept-1-yl)methanol] | – | – | > 75 | < 25
CC(C)(NC[C@H](O)c1cncc(F)c1)[C@H]1CC[C@H](C(=O)O)CC1 [Compound 390, (1R,4r)-8-[(R)-2-(5-fluoro-3-pyridyl)-2-hydroxyethylamino]-7-hydroxy-p-menthan-7-one] | 50 to 75 | < 25 | – | –
CS(=O)(=O)N(Cc1ccccc1)[C@H]1CC[C@@H](C[C@@H]2CC[C@H]([C@H](O)c3cccc(F)c3)N2)CC1 [Compound 508, (R)-[(2R,5S)-5-({(1s,4R)-4-[(benzyl)-N-mesylamino]cyclohexyl}methyl)-2-pyrrolidinyl](m-fluorophenyl)methanol] | < 25 | < 25 | – | –
CC1(C)C[C@@H]([C@H](O)c2cccc(Cl)c2)N1 [Compound 232] | 25 to 50 | < 25 | – | –
CC(C)(C[C@H]1CC[C@H](N)CC1)NC[C@H](O)c1cncc(F)c1 [Compound 359, (R)-2-{1,1-dimethyl-2-[(1r,4R)-4-aminocyclohexyl]ethylamino}-1-(5-fluoro-3-pyridyl)-1-ethanol] | > 75 | < 25 | – | –
CC1(C)CC[C@@H]([C@H](O)c2cccc(O)c2)N1 [Compound 142, m-{(R)-[(S)-5,5-dimethyl-2-pyrrolidinyl] hydroxymethyl}phenol] | – | – | 25 to 50 | < 25

SMILES | Emax at 10 µM (L6-myotubes [1]; [3]) [%] | Emax at 10 µM (L6-myotubes [2]; [4]) [%] | Emax at 10 µM (L6-myotubes [1]; [5]) [%] | Emax at 10 µM (L6-myotubes [2]; [6]) [%]
CC(C)(C)NC[C@H](O)c1cccc(O)c1F [Compound 86, (R)-2-(tert-butylamino)-1-(2-fluoro-3-hydroxyphenyl)-1-ethanol] | – | – | 50 to 75 | 50 to 75
COc1ccc(C[C@@]2(C)CC[C@H]([C@@H](O)c3cccc(F)c3)N2)cc1 [Compound 365, (S)-{(2R,5R)-5-[(p-methoxyphenyl)methyl]-5-methyl-2-pyrrolidinyl}(m-fluorophenyl)methanol] | > 75 | < 25 | – | –
CCC[C@H]1CCCC[C@@H]([C@@H](O)c2cncc(F)c2)N1 [Compound 235, (S)-[(2S,7S)-7-propyl-2-azepanyl](5-fluoro-3-pyridyl)methanol] | < 25 | < 25 | – | –
CO[C@H]1CC[C@H](C[C@H]2CC[C@H]([C@H](O)c3cncc(F)c3)N2)CC1 [Compound 341] | > 75 | < 25 | – | –
CO[C@H]1CC[C@H](C[C@@H]2CC[C@H]([C@@H](O)c3cccc(F)c3)N2)CC1 [Compound 325, (S)-[(2R,5S)-5-{[(1r,4S)-4-methoxycyclohexyl]methyl}-2-pyrrolidinyl](m-fluorophenyl)methanol] | > 75 | < 25 | – | –
COC(=O)[C@H]1CC[C@H](CC(C)(C)NC[C@H](O)c2cncc(F)c2)CC1 [Compound 354, methyl (1R,4r)-4-{2-[(R)-2-(5-fluoro-3-pyridyl)-2-hydroxyethylamino]-2-methylpropyl} cyclohexanecarboxylate] | 50 to 75 | < 25 | – | –
Oc1ccc(C(O)CNCC2CCCCC2)cc1 (centres unmarked) [Compound 6, 2-[(cyclohexylmethyl)amino]-1-(p-hydroxyphenyl)-1-ethanol] | – | – | > 75 | < 25
CCCCNCC(O)c1cc[nH]c(=O)c1 (centres unmarked) [Compound 62, 4-[2-(butylamino)-1-hydroxyethyl]-2(1H)-pyridinone] | – | – | 25 to 50 | < 25
O[C@@H](c1cccc(F)c1)C12CCC(COCc3ccc(OC(F)(F)F)cc3)(CC1)N2 [Compound 487] | < 25 | < 25 | – | –
CCCCNCC(O)c1ccc(=O)[nH]c1 (centres unmarked) [Compound 63, 5-[2-(butylamino)-1-hydroxyethyl]-2(1H)-pyridinone] | – | – | 25 to 50 | < 25
CCC[C@@H](C)NC[C@H](O)c1ccc(O)cc1 [Compound 27, (R)-2-[(R)-1-methylbutylamino]-1-(p-hydroxyphenyl)-1-ethanol] | – | – | > 75 | 25 to 50
CC(C)(C)NC[C@H](O)c1ccc(F)cn1 [Compound 96, (S)-2-(tert-butylamino)-1-(5-fluoro-2-pyridyl)-1-ethanol] | – | – | 50 to 75 | < 25
CC(=O)N[C@H]1CC[C@H](CC(C)(C)NC[C@H](O)c2cccc(C#N)n2)CC1 [Compound 425] | > 75 | 25 to 50 | – | –
O[C@@H](c1cccc(F)c1)C12CCC(COc3ccc(Cl)cc3)(CC1)N2 [Compound 440] | > 75 | < 25 | – | –
CS(=O)(=O)N(Cc1ccccc1)CC12CCC([C@@H](O)c3cccc(F)c3)(CC1)N2 [Compound 538, (S)-(4-{[(benzyl)-N-mesylamino]methyl}-7-azabicyclo[[2.2.1]]hept-1-yl)(m-fluorophenyl)methanol] | 50 to 75 | < 25 | – | –
CC1(C)C[C@H]([C@@H](O)c2cccc(F)c2)N1 [Compound 201] | < 25 | < 25 | – | –
CCC[C@@H]1CCC[C@@H]([C@H](O)c2cccc(Cl)c2)N1 [Compound 115] | – | – | > 75 | < 25
CC(C)(C)NC[C@H](O)c1cccc(F)c1F [Compound 76, (R)-2-(tert-butylamino)-1-(2,3-difluorophenyl)-1-ethanol] | – | – | > 75 | 25 to 50
